Assay results reported in the supplement of paper PMC10307832.

Assays:
Experiment in all cases: relative viability (nuclei count vs DMSO), 5 days (fraction); higher = more cells survive
[1] = compound: Cc1cnc(-c2cnc(NCCNc3ccc(C#N)cn3)nc2-c2ccc(Cl)cc2Cl)[nH]1
Summary of the method: (§1)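 Lung cancer cell lines received five library-drug doses (not always all listed) spaced by √10, pinned on vehicle-anchored 1536-well plates after an overnight stay at 37 °C. Five days later, with no medium change, nuclei were Hoechst-stained, imaged at 4× and counted with MetaXpress. Viability is treated-well nuclei relative to vehicle-well nuclei, as a median across plates. Passing plates had control CV below 25% and at least one doubling.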

[2] = compound: O=C(O)CCCCC(CCSCc1ccccc1)SCc1ccccc1 [CPI-613]
Summary of the method: as §1

[3] = compound: Nc1ccn([C@@H]2O[C@H](CO)[C@@H](O)[C@@H]2O)c(=O)n1 [Cytarabine]
Summary of the method: as §1

[4] = compound: O=c1[nH]c2ccccc2n1C1CCN(CCCC(c2ccc(F)cc2)c2ccc(F)cc2)CC1 [Pimozide]
Summary of the method: as §1

[5] = compound: COc1cc2nccc(Oc3ccc(NC(=O)Nc4cc(C)on4)c(Cl)c3)c2cc1OC [Tivozanib]
Summary of the method: as §1

[6] = compound: Cc1sc2c(c1C)C(c1ccc(Cl)cc1)=N[C@@H](CC(=O)OC(C)(C)C)c1nnc(C)n1-2 [JQ1]
Summary of the method: as §1

[7] = compound: CC(=O)O[C@@]12CO[C@@H]1C[C@H](O)[C@@]1(C)C(=O)[C@H](O)C3=C(C)[C@@H](OC(=O)[C@H](O)[C@@H](NC(=O)OC(C)(C)C)c4ccccc4)C[C@@](O)([C@@H](OC(=O)c4ccccc4)[C@H]21)C3(C)C [Docetaxel]
Summary of the method: as §1

| Cell Line | relative viability ([1]; 0.08 µM) | relative viability ([1]; 0.8 µM) | relative viability ([1]; 2.53 µM) | relative viability ([2]; 5 µM) | relative viability ([2]; 15.81 µM) | relative viability ([2]; 50 µM) | relative viability ([2]; 158.11 µM) | relative viability ([2]; 500 µM) | relative viability ([3]; 0.005 µM) | relative viability ([3]; 0.01581 µM) | relative viability ([3]; 0.05 µM) | relative viability ([3]; 0.1581 µM) | relative viability ([3]; 0.5 µM) | relative viability ([4]; 0.08 µM) | relative viability ([4]; 0.253 µM) | relative viability ([4]; 0.8 µM) | relative viability ([4]; 2.53 µM) | relative viability ([4]; 8 µM) | relative viability ([5]; 0.005 µM) | relative viability ([5]; 0.01581 µM) | relative viability ([5]; 0.05 µM) | relative viability ([5]; 0.1581 µM) | relative viability ([5]; 0.5 µM) | relative viability ([6]; 0.04 µM) | relative viability ([6]; 0.1265 µM) | relative viability ([6]; 0.4 µM) | relative viability ([6]; 1.265 µM) | relative viability ([6]; 4 µM) | relative viability ([7]; 0.0002 µM) | relative viability ([7]; 0.000632 µM) | relative viability ([7]; 0.002 µM) | relative viability ([7]; 0.006325 µM) | relative viability ([7]; 0.02 µM) | relative viability ([1]; 0.253 µM) |
| --- | --- | --- | --- | --- | --- | --- | --- | --- | --- | --- | --- | --- | --- | --- | --- | --- | --- | --- | --- | --- | --- | --- | --- | --- | --- | --- | --- | --- | --- | --- | --- | --- | --- | --- |
| 201T | 1.01 | 0.966 | 0.992 | 0.97 | 0.909 | 0.968 | 0.756 | 0.862 | 0.981 | 1.03 | 0.977 | 0.873 | 0.787 | 0.98 | 0.977 | 0.965 | 0.936 | 0.832 | 1.01 | 1.01 | 1.03 | 0.912 | 0.991 | 0.97 | 0.561 | 0.865 | 0.458 | 0.386 | 0.977 | 0.963 | 0.657 | 0.469 | 0.369 | – |
| A549 | 1.06 | 0.945 | 0.958 | 0.973 | 0.911 | 0.978 | 0.624 | 0.647 | 0.861 | 0.682 | 0.391 | 0.101 | 0.0441 | 0.96 | 0.89 | 0.981 | 0.952 | 0.874 | 0.939 | 0.99 | 0.994 | 0.942 | 0.944 | 0.953 | 0.912 | 0.909 | 0.686 | 0.363 | 0.914 | 0.68 | 0.0907 | 0.0644 | 0.0347 | 0.957 |
| A-427 | 1.04 | 0.959 | 0.948 | 1 | 0.898 | 0.939 | 0.772 | 0.157 | 0.823 | 0.449 | 0.329 | 0.214 | 0.204 | 0.952 | 0.967 | 0.94 | 0.882 | 0.845 | 0.98 | 1 | 1.03 | 0.902 | 0.833 | 0.902 | 0.879 | 0.91 | 0.653 | 0.504 | 0.931 | 0.952 | 0.439 | 0.281 | 0.171 | 0.852 |
| ABC-1 | 0.881 | 0.896 | 0.904 | 1.05 | 0.802 | 1.04 | 0.469 | 0.226 | 0.907 | 0.883 | 0.808 | 0.732 | 0.582 | 0.811 | 1.05 | 0.959 | 0.897 | 0.698 | 0.849 | 0.919 | 1 | 0.793 | 0.412 | 0.947 | 0.657 | 0.691 | 0.572 | 0.444 | 0.853 | 0.817 | 0.472 | 0.343 | 0.24 | 0.682 |
| BEN | 1.05 | 0.933 | 0.984 | 0.988 | 0.843 | 0.96 | 0.799 | 0.811 | 0.892 | 0.794 | 0.617 | 0.473 | 0.335 | 0.96 | 1.07 | 0.975 | 0.925 | 1.04 | 0.922 | 1.05 | 1.02 | – | 0.889 | 0.809 | 0.848 | 0.594 | 0.44 | 0.387 | 0.951 | 1.01 | 0.593 | 0.291 | 0.198 | 0.991 |
| CAL-12T | 1.03 | 0.899 | 0.927 | 0.877 | 0.829 | 0.822 | 0.423 | 0.235 | 0.983 | 0.909 | 0.789 | 0.397 | 0.255 | 0.951 | 0.936 | 0.909 | 0.867 | 0.832 | 0.857 | 0.941 | 0.994 | 0.698 | 0.959 | 0.867 | 0.818 | 0.798 | 0.321 | 0.293 | 0.791 | 0.418 | 0.302 | 0.21 | 0.178 | 0.933 |
| COR-L23 | 1.08 | 1.04 | 0.934 | 1 | 0.946 | 1.03 | 0.415 | 0.0149 | 1.06 | 0.874 | 0.656 | 0.234 | 0.172 | 1.08 | 1.03 | 0.949 | 0.981 | 0.912 | 1.01 | 0.989 | 1.06 | 1.09 | 0.841 | 0.965 | 0.848 | 1.02 | 0.54 | 0.549 | 0.963 | 0.904 | 0.514 | 0.184 | 0.141 | 0.897 |
| COR-L 105 | 0.991 | 0.868 | 0.563 | 0.853 | 0.872 | 0.839 | 0.364 | 0.29 | 0.905 | 0.81 | 0.627 | 0.448 | 0.386 | – | 1.1 | 0.907 | 0.862 | 0.838 | 0.901 | 0.914 | 0.93 | 0.843 | 0.859 | 0.684 | 0.607 | 0.38 | 0.352 | 0.33 | 0.86 | 0.811 | 0.536 | 0.418 | 0.302 | 0.887 |
| Calu-6 | 1 | 0.969 | 0.908 | 0.978 | 0.999 | 0.913 | 0.722 | 0.545 | 0.93 | 0.865 | 0.714 | 0.462 | 0.313 | 1.05 | 1.01 | 0.974 | 0.991 | 0.897 | 0.955 | 1.02 | 1.04 | 1.08 | 0.943 | 0.951 | 0.804 | 0.933 | 0.593 | 0.425 | 1.01 | 0.892 | 0.28 | 0.157 | 0.109 | 0.951 |
